Key:
[1] = molecular target: recombinant rat α1β3γ2 receptors (Rattus norvegicus, UniProt P18508+P62813); test: Two-electrode voltage clamp of GABA-induced chloride currents in Xenopus oocytes; assay type: cell-based; conditions: for efficacy (% GABA EC3): α1β3γ2, ns = not significant
[2] = molecular target: recombinant rat α1β3γ2F77I receptors (Rattus norvegicus, UniProt P18508+P62813, F115I); test: as above; assay type: cell-based; conditions: for efficacy (% GABA EC3): ns = not significant
[3] = molecular target: recombinant rat α2β3γ2 receptors (Rattus norvegicus, UniProt P18508+P23576); test: as above; assay type: cell-based; conditions: α2β3γ2; for efficacy (% GABA EC3): ns = not significant
[4] = molecular target: recombinant rat α2β3γ2F77I receptors (Rattus norvegicus, UniProt P18508+P23576, F115I); test: as above; assay type: cell-based; conditions: for efficacy (% GABA EC3): ns = not significant
[5] = molecular target: recombinant rat α3β3γ2 receptors (Rattus norvegicus, UniProt P18508+P20236); test: as above; assay type: cell-based; conditions: for efficacy (% GABA EC3): α3β3γ2, ns = not significant
[6] = molecular target: recombinant rat α3β3γ2F77I receptors (Rattus norvegicus, UniProt P18508+P20236, F115I); test: as above; assay type: cell-based; conditions: for efficacy (% GABA EC3): ns = not significant
[7] = molecular target: recombinant rat α4β3γ2 receptors (Rattus norvegicus, UniProt P18508+P28471); test: as above; assay type: cell-based; conditions: α4β3γ2; for efficacy (% GABA EC3): ns = not significant; for maximal effect on GABA-induced chloride flux (GABA EC3), % of control current: control current = 100%
[8] = molecular target: recombinant rat α5β3γ2 receptors (Rattus norvegicus, UniProt P18508+P19969); test: as above; assay type: cell-based; conditions: for efficacy (% GABA EC3): α5β3γ2, ns = not significant
[9] = molecular target: recombinant rat α5β3γ2F77I receptors (Rattus norvegicus, UniProt P18508+P19969, F115I); test: as above; assay type: cell-based; conditions: for efficacy (% GABA EC3): ns = not significant
[10] = molecular target: recombinant rat α6β3γ2 receptors (Rattus norvegicus, UniProt P18508+P30191); test: as above; assay type: cell-based; conditions: α6β3γ2; for efficacy (% GABA EC3): ns = not significant; for maximal effect on GABA-induced chloride flux (GABA EC3), % of control current: control current = 100%
[11] = test system: GABAA receptors containing the γ2F77I mutation; test: Modulation of GABA EC3 in receptors containing the γ2F77I mutation; assay type: cell-based, rat; conditions: GABAA receptors containing the γ2F77I mutation
[12] = read-out: efficacy (% GABA EC3)

Sequence of recombinant rat α1β3γ2F77I receptors (P62813 28-455): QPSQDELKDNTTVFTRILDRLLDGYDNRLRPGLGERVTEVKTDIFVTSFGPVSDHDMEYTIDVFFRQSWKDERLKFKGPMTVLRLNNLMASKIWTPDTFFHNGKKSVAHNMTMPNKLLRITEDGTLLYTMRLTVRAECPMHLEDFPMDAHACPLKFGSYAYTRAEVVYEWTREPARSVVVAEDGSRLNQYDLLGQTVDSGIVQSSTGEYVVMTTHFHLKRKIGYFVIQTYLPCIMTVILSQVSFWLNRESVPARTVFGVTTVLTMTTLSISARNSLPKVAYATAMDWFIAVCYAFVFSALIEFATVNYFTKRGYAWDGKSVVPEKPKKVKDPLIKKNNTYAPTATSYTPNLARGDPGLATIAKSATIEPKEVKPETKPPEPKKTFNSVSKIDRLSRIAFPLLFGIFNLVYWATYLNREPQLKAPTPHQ
Sequence of recombinant rat α1β3γ2F77I receptors (P63079 26-473 partner): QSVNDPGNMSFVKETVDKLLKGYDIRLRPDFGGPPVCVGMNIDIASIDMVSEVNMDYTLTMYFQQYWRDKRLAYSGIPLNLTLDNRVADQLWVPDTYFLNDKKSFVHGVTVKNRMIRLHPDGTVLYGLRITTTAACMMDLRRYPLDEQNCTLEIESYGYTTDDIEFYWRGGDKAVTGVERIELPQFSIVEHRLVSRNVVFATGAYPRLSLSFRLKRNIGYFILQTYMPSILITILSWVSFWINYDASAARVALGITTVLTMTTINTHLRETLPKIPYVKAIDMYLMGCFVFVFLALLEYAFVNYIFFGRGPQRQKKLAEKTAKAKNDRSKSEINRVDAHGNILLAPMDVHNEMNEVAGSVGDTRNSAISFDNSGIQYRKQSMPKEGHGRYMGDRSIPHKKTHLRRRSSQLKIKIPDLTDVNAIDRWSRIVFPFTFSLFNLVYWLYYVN
Sequence of recombinant rat α1β3γ2F77I receptors (P18508 39-466 F115I): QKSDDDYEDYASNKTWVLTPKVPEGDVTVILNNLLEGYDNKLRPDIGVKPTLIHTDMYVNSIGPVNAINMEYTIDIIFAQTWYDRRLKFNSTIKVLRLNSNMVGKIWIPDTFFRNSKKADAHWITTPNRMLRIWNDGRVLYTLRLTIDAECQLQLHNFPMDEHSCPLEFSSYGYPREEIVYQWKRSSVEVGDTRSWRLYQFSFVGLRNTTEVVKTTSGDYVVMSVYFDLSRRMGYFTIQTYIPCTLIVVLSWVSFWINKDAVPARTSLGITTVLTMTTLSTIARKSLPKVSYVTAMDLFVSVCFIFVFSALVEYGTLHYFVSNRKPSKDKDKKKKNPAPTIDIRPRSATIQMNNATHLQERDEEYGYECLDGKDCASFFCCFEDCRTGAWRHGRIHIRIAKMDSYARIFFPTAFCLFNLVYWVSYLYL
Sequence of recombinant rat α1β3γ2 receptors (P62813 28-455): as the sequence (P62813 28-455) above
Sequence of recombinant rat α1β3γ2 receptors (P63079 26-473 partner): as the sequence (P63079 26-473 partner) above
Sequence of recombinant rat α1β3γ2 receptors (P18508 39-466): as the sequence (P18508 39-466 F115I) above, with I77F counted along it
Sequence of recombinant rat α2β3γ2 receptors (P23576 29-451): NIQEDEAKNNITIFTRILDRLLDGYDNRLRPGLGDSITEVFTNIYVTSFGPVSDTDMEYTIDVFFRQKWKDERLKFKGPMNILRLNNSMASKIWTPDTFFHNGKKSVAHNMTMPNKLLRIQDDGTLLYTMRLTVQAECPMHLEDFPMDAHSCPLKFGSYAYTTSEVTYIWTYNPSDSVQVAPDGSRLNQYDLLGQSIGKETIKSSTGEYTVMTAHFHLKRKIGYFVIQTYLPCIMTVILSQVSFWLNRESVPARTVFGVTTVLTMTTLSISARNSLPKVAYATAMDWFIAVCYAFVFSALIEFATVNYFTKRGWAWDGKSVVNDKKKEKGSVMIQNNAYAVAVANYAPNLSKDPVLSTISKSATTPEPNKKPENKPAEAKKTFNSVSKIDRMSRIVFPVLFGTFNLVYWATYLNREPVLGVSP
Sequence of recombinant rat α2β3γ2 receptors (P63079 26-473 partner): as the sequence (P63079 26-473 partner) above
Sequence of recombinant rat α2β3γ2 receptors (P18508 39-466): as the sequence (P18508 39-466 F115I) above, with I77F counted along it

With `CN1C(=O)CN=C(c2ccccc2)c2cc(Cl)ccc21` [Diazepam, 7-chloro-1,3-dihydro-1-methyl-5-phenyl-2H-1,4-benzodiazepin-2-one] the “efficacy (% GABA EC3)” value ([1]; 100 nM) was 239 ± 23 % GABA EC3, the “efficacy (% GABA EC3)” value ([1]; 1 μM) was 314 ± 29 % GABA EC3 and the “efficacy (% GABA EC3)” value ([1]; 10 μM) was 324 ± 22 % GABA EC3. The “efficacy (% GABA EC3)” value ([2]; 100 nM, α1β3γ2F77I) was 162 ± 17 % GABA EC3, the “efficacy (% GABA EC3)” value ([2]; 1 μM, α1β3γ2F77I) was 220 ± 21 % GABA EC3 and the “efficacy (% GABA EC3)” value ([2]; 10 μM, α1β3γ2F77I) was 229 ± 26 % GABA EC3. For the same molecule, the “efficacy for enhancing GABA EC3 in receptors containing the γ2F77I mutation” value (“efficacy for enhancing GABA EC3” for short) ([2]; α1β3γ2F77I) was 229 ± 26%, the “efficacy (% GABA EC3)” value ([3]; 100 nM) was 426 ± 22 % GABA EC3 and the “efficacy (% GABA EC3)” value ([3]; 1 μM) was 536 ± 26 % GABA EC3. For the same molecule, the “efficacy (% GABA EC3)” value ([3]; 10 μM) was 532 ± 20 % GABA EC3, the “efficacy (% GABA EC3)” value ([4]; 100 nM, α2β3γ2F77I) was 181 ± 1 % GABA EC3 and the “efficacy (% GABA EC3)” value ([4]; 1 μM, α2β3γ2F77I) was 265 ± 4 % GABA EC3. For the same molecule, the “efficacy (% GABA EC3)” value ([4]; 10 μM, α2β3γ2F77I) was 278 ± 6 % GABA EC3, the “efficacy for enhancing GABA EC3” value ([4]; α2β3γ2F77I) was 278 ± 6% and the “efficacy (% GABA EC3)” value ([5]; 100 nM) was 437 ± 32 % GABA EC3. For the same molecule, the “efficacy (% GABA EC3)” value ([5]; 1 μM) was 752 ± 48 % GABA EC3, the “efficacy (% GABA EC3)” value ([5]; 10 μM) was 738 ± 36 % GABA EC3 and the “efficacy (% GABA EC3)” value ([6]; 100 nM, α3β3γ2F77I) was 166 ± 17 % GABA EC3. For the same molecule, the “efficacy (% GABA EC3)” value ([6]; 1 μM, α3β3γ2F77I) was 263 ± 39 % GABA EC3, the “efficacy (% GABA EC3)” value ([6]; 10 μM, α3β3γ2F77I) was 272 ± 36 % GABA EC3 and the “efficacy for enhancing GABA EC3” value ([6]; α3β3γ2F77I) was 272 ± 36%. For the same molecule, the “efficacy (% GABA EC3)” value ([7]; 1 μM) was “ns”, the “efficacy (% GABA EC3)” value ([7]; 10 μM) was “ns” and the “maximal effect on GABA-induced chloride flux (GABA EC3), % of control current” value (shortened to “maximal effect … % of control current”) [7] was “did not stimulate”. The “efficacy (% GABA EC3)” value ([8]; 100 nM) was 274 ± 16 % GABA EC3, the “efficacy (% GABA EC3)” value ([8]; 1 μM) was 342 ± 21 % GABA EC3 and the “efficacy (% GABA EC3)” value ([8]; 10 μM) was 321 ± 14 % GABA EC3. For the same molecule, the “efficacy (% GABA EC3)” value ([9]; 100 nM, α5β3γ2F77I) was 135 ± 7 % GABA EC3, the “efficacy (% GABA EC3)” value ([9]; 1 μM, α5β3γ2F77I) was 170 ± 4 % GABA EC3 and the “efficacy (% GABA EC3)” value ([9]; 10 μM, α5β3γ2F77I) was 154 ± 2 % GABA EC3. The “efficacy for enhancing GABA EC3” value ([9]; α5β3γ2F77I) was 154 ± 2%, the “efficacy (% GABA EC3)” value ([10]; 1 μM) was “ns” and the “efficacy (% GABA EC3)” value ([10]; 10 μM) was “ns”. For the same molecule, the “maximal effect … % of control current” value [10] was “did not stimulate”.

With `CNC(=O)c1cc2c(cn1)[nH]c1ccccc12` [FG7142, N-methyl-β-carboline-3-carboxamide] the “efficacy (% GABA EC3)” value ([1]; 100 nM) was “ns”, the activity at 1 µM [1, 12] was 88 ± 5% and the activity at 10 µM [1, 12] was 92 ± 4%. For the same molecule, the activity at 0.1 µM [2, 12] was 107 ± 1%, the activity at 1 µM [2, 12] was 111 ± 1% and the activity at 10 µM [2, 12] was 124 ± 3%. The “efficacy (% GABA EC3)” value ([3]; 100 nM) was “ns”, the “efficacy (% GABA EC3)” value ([3]; 1 μM) was “ns” and the “efficacy (% GABA EC3)” value ([3]; 10 μM) was “ns”. The “maximal effect … % of control current” value ([3]; control current = 100%) was “the reduction was not significant”, the “efficacy (% GABA EC3)” value ([4]; 100 nM, α2β3γ2F77I) was “ns” and the “efficacy (% GABA EC3)” value ([4]; 1 μM, α2β3γ2F77I) was “ns”. The activity at 10 µM [4, 12] was 117 ± 4%, the “efficacy (% GABA EC3)” value ([5]; 100 nM) was “ns” and the activity at 1 µM [5, 12] was 95 ± 2%. For the same molecule, the activity at 10 µM [5, 12] was 91 ± 2%, the “efficacy (% GABA EC3)” value ([6]; 100 nM, α3β3γ2F77I) was “ns” and the activity at 1 µM [6, 12] was 115 ± 5%. For the same molecule, the activity at 10 µM [6, 12] was 126 ± 6%, the “efficacy (% GABA EC3)” value ([7]; 100 nM) was “ns” and the “efficacy (% GABA EC3)” value ([7]; 1 μM) was “ns”. The “efficacy (% GABA EC3)” value ([7]; 10 μM) was “ns”, the “maximal effect … % of control current” value [7] was “did not significantly influence” and the “efficacy (% GABA EC3)” value ([8]; 100 nM) was “ns”. For the same molecule, the “efficacy (% GABA EC3)” value ([8]; 1 μM) was “ns”, the activity at 10 µM [8, 12] was 84 ± 5% and the activity at 0.1 µM [9, 12] was 111 ± 2%. For the same molecule, the activity at 1 µM [9, 12] was 112 ± 4%, the activity at 10 µM [9, 12] was 122 ± 4% and the “efficacy (% GABA EC3)” value ([10]; 100 nM) was “ns”. For the same molecule, the “efficacy (% GABA EC3)” value ([10]; 1 μM) was “ns”, the “efficacy (% GABA EC3)” value ([10]; 10 μM) was “ns” and the “maximal effect … % of control current” value [10] was “did not significantly influence”. The “maximum stimulation of the GABA-induced current” value [11] was 126 ± 6%.

Source: PMC7615656 (European journal of pharmacology, 2010)
